Consider 36 molecules from ChEMBL document CHEMBL1131083, “Tipranavir (PNU-140690): a potent, orally bioavailable nonpeptidic HIV protease inhibitor of the 5,6-dihydro-4-hydroxy-2-pyrone sulfonamide class” (J Med Chem, 1998).

Test [1] has as its target Human immunodeficiency virus type 1 protease (Human immunodeficiency virus 1) (UniProt Q72874). The experiment in a line: Inhibition of HIV-1 protease in a cell culture assay using HIV-1 IIIB infected H9 cells. The format is functional, cell-based.
Test [2] addresses Human immunodeficiency virus type 1 protease (Human immunodeficiency virus 1, UniProt Q72874). As to the kind of experiment: Inhibitory activity against HIV-1 protease in tandem assay.
A short description of test [3]: Inhibition of HIV-1 protease in a cell culture assay using HIV-1 IIIB infected H9 cells.
For test [4], the system named is H9. The experiment in a line: Inhibitory activity against HIV-1 Protease in a cell culture assay using HIV-1 IIIB infected H9 cells at 3 uM. The format is functional. As to conditions: Homo sapiens.
The test system of test [5] is H9. As to the kind of experiment: Inhibitory activity against HIV-1 Protease in a cell culture assay using HIV-1 IIIB infected H9 cells at 1 uM. In kind it is functional. The following applies: Homo sapiens.
For test [6], the target named is Human immunodeficiency virus type 1 protease (Human immunodeficiency virus 1) (UniProt Q72874). The experiment in a line: Inhibitory activity against HIV-1 Protease in tandem assay. As to conditions: concentration not given here.

SMILES strings stand for the structures.

Consider `CCC[C@]1(CCc2ccccc2)CC(=O)C([C@H](CC)c2cccc(NS(=O)(=O)c3cn(C)cn3)c2)=C(O)O1`, for which the IC90 in test [1] came to 1000 nM. The molecule further had a Ki in test [2] of 0.12 nM.
`CCC[C@]1(CCc2ccccc2)CC(=O)C(C(CC)c2cccc(NS(=O)(=O)c3ccc(C(F)(F)F)cn3)c2)=C(O)O1` (stereo not given in full) yielded a concentration for an effect of 90% (IC90) in test [1] of 840 nM. In test [2], this molecule gave a Ki of 0.018 nM.
The corresponding values for `CCCCCC1(CCCCC)CC(=O)C(C(CC)c2cccc(NS(=O)(=O)c3cn(C)cn3)c2)=C(O)O1` (stereo not given) are less than 3000 nM and 2.6 nM.
The corresponding values for `CCC(C1=C(O)OC(CC(C)C)(CC(C)C)CC1=O)c1cccc(NS(=O)(=O)c2cn(C)cn2)c1` (stereo not given) are 7400 nM and 3 nM.
`CCCC1(CCc2ccccc2)CC(=O)C(C(c2cccc(NS(=O)(=O)c3cn(C)cn3)c2)C2CC2)=C(O)O1` (stereo not given) had a concentration for an effect of 90% (IC90) in test [1] of 1000 nM. Further, in test [2], the affinity, expressed as Ki, was 0.71 nM.
In test [1], `CCC[C@@]1(CCc2ccccc2)CC(=O)C([C@H](CC)c2cccc(NS(=O)(=O)c3cn(C)cn3)c2)=C(O)O1` returned an IC90 of 560 nM. The molecule also came in with a Ki in test [2] of 0.06 nM.
In test [1], `CCC[C@@]1(CCc2ccccc2)CC(=O)C([C@@H](CC)c2cccc(NS(=O)(=O)c3cn(C)cn3)c2)=C(O)O1` came in with a concentration for an effect of 90% (IC90) greater than 1000 nM. In test [2], this molecule displayed a Ki of 0.3 nM.
With `CCC[C@@]1(CCc2ccccc2)CC(O)=C([C@H](CC)c2cccc(NS(=O)(=O)c3ccc(C(F)(F)F)cn3)c2)C(=O)O1` [TIPRANAVIR], the midpoint of inhibition in test [3], the IC50, lay at 30 nM. In test [2], the affinity, expressed as Ki, was 0.008 nM.
`CCCC1(CCc2ccccc2)CC(=O)C(C(CC)c2cccc(NS(=O)(=O)c3cn(C)cn3)c2)=C(O)O1` (stereo not given) had a Ki in test [2] of 1.2 nM.
Molecule `CCC(C1=C(O)OC(CCC2CC2)(CCC2CC2)CC1=O)c1cccc(NS(=O)(=O)c2cn(C)cn2)c1` (stereo not given) registered a 90% effect concentration (IC90) in test [1] of 2900 nM. In addition, the inhibition constant (Ki) in test [2] amounted to 1.7 nM.
The matching figures for `CCCC1(CCc2ccccc2)CC(=O)C(C(c2cccc(NS(=O)(=O)c3ccc(C#N)cc3)c2)C(C)(C)C)=C(O)O1` (stereo not given): 3000 nM and 12 nM.
Take `CCCC1(CCc2ccccc2)CC(=O)C(C(CC)c2cccc(NS(=O)(=O)c3cccc4cccnc34)c2)=C(O)O1` (stereo not given): 1000 nM corresponded to half-maximal inhibition in test [3] (IC50). Moreover, the Ki in test [2] amounted to 3.1 nM.
The matching figures for `CCCC1(CCc2ccccc2)CC(=O)C(C(CC)c2cccc(NS(=O)(=O)c3ccc(F)cc3)c2)=C(O)O1` (stereo not given): 1200 nM and 6.1 nM.
Molecule `CCCC1(CCc2ccccc2)CC(=O)C(C(CC)c2cccc(NS(=O)(=O)c3ccccc3)c2)=C(O)O1` (stereo not given) had a half-maximal inhibitory concentration (IC50) in test [3] of 1600 nM.
`CCCC1(CCc2ccccc2)CC(=O)C(C(c2cccc(NS(=O)(=O)c3ccc(C(F)(F)F)cn3)c2)C(C)(C)C)=C(O)O1` (stereo not given) yielded a concentration for an effect of 90% (IC90) in test [1] of 990 nM. In test [2], this molecule came in with an inhibitory constant (Ki) of 4.3 nM.
In test [1], `CCCC1(CCC)CC(=O)C(C(c2cccc(NS(=O)(=O)c3cn(C)cn3)c2)C(C)(C)C)=C(O)O1` (stereo not given) gave an IC90 of 1000 nM. This molecule registered an inhibition constant (Ki) in test [2] of 0.87 nM.
`CCC(C1=C(O)OC(CCc2ccccc2)(CCc2ccccc2)CC1=O)c1cccc(NS(=O)(=O)c2cn(C)cn2)c1` (stereo not given) showed a 90% effect concentration (IC90) in test [1] of 2000 nM. In test [2], the Ki stood at 1 nM.
The molecule `CCCC1(CCc2ccccc2)CC(=O)C(C(CC)c2cccc(NS(=O)(=O)c3ccc(C#N)cc3)c2)=C(O)O1` (stereo not given) yielded a half-maximal inhibitory concentration (IC50) in test [3] of 1100 nM. Besides, affinity in test [2] was put at a Ki of 8.2 nM.
For `CCC[C@@]1(CCc2ccccc2)CC(=O)C([C@@H](CC)c2cccc(NS(=O)(=O)c3ccc(C#N)cn3)c2)=C(O)O1`, the 90% effect level in test [1] (IC90) was put at 1000 nM. In test [2], this molecule came in with an inhibition constant Ki of 0.1 nM.
The matching figures for `CCCC1(CCc2ccc(F)cc2)CC(=O)C(C(CC)c2cccc(NS(=O)(=O)c3cn(C)cn3)c2)=C(O)O1` (stereo not given): 2000 nM and 3 nM.
The corresponding values for `CCCC1(CCC)CC(=O)C(C(c2cccc(NS(=O)(=O)c3cn(C)cn3)c2)C2CC2)=C(O)O1` (stereo not given) are 3000 nM and 0.52 nM.
Turning to `CCC[C@@]1(CCc2ccccc2)CC(=O)C([C@@H](CC)c2cccc(NS(=O)(=O)c3ccc(C(F)(F)F)cn3)c2)=C(O)O1` (stereo in doubt; 39d), in test [3], inhibition was half-maximal at 410 nM (IC50).
Molecule `CCC(C1=C(O)OC(COCCOCCOC)(COCCOCCOC)CC1=O)c1cccc(NS(=O)(=O)c2cn(C)cn2)c1` (stereo not given) displayed an inhibition at 3 µM in test [4] of 0%. The affinity in test [2], expressed as Ki, was 28 nM.
`CCCC1(CCc2ccccc2)CC(=O)C(C(CC)c2cccc(NS(=O)(=O)CCC)c2)=C(O)O1` (stereo not given) had an inhibition constant (Ki) in test [2] greater than 1 nM.
On to `CCC[C@@]1(CCc2ccccc2)CC(O)=C([C@H](CC)c2cccc(NS(=O)(=O)c3ccc(C#N)cn3)c2)C(=O)O1`, for which 40 nM corresponded to half-maximal inhibition in test [3] (IC50).
The same measure, in the same setting: for `CCC[C@@]1(CCc2ccccc2)CC(=O)C([C@@H](CC)c2cccc(NS(=O)(=O)c3ccc(C(F)(F)F)cn3)c2)=C(O)O1` (stereo in doubt; 39c) the value was 1700 nM.
The molecule `CCCC1(CCc2ccccc2)CC(=O)C(C(c2cccc(NS(=O)(=O)c3ccc([N+](=O)[O-])cn3)c2)C(C)(C)C)=C(O)O1` (stereo not given) had a concentration for an effect of 90% (IC90) in test [1] greater than 3000 nM. Moreover, in test [2], the inhibition constant Ki stood at 2.3 nM.
The matching figures for `CCCC1(CCc2ccccc2)CC(=O)C(C(CC)c2cccc(NS(=O)(=O)c3ccc(C#N)cn3)c2)=C(O)O1` (stereo not given): 470 nM and 0.1 nM.
The molecule `CCCC1(CCc2ccccc2)CC(=O)C(C(c2cccc(NS(=O)(=O)c3ccc(C#N)cn3)c2)C(C)(C)C)=C(O)O1` (stereo not given) had a 90% effect concentration (IC90) in test [1] of 340 nM. The molecule also returned an inhibitory constant (Ki) in test [2] of 1.9 nM.
The corresponding values for `CCCC1(CCC)CC(=O)C(C(CC)c2cccc(NS(=O)(=O)c3cn(C)cn3)c2)=C(O)O1` (stereo not given) are 2000 nM and 1.8 nM.
Molecule `CCCC1(CCc2ccccc2)CC(=O)C(Cc2cccc(NS(=O)(=O)c3cn(C)cn3)c2)=C(O)O1` (stereo not given) registered an inhibition at 1 µM in test [5] of 0%. Moreover, the inhibition constant Ki in test [2] worked out at 13 nM.
`CCC(C1=C(O)OC(C23C[C@H]4C[C@@H](C2)C[C@@H](C3)C4)CC1=O)c1cccc(NS(=O)(=O)c2cn(C)cn2)c1` (stereo not given in full): affinity in test [2] was put at a Ki of 23 nM.
`CCCC1(CCc2ccccc2)CC(=O)C(C(c2cccc(NS(=O)(=O)c3ccc(N)cn3)c2)C(C)(C)C)=C(O)O1` (stereo not given): in test [1], the IC90 is 740 nM. In test [2], this molecule gave an inhibitory constant (Ki) of 0.2 nM.
In turn, `CCC[C@]1(CCc2ccccc2)CC(=O)C([C@H](CC)c2cccc(NS(=O)(=O)c3ccc(C#N)cn3)c2)=C(O)O1` gave a concentration for an effect of 90% (IC90) in test [1] of 890 nM. Further, in test [2], the affinity corresponds to a Ki of 0.04 nM.
`CCCC1(CCC)CC(=O)C(Cc2cccc(NS(=O)(=O)c3cn(C)cn3)c2)=C(O)O1` had an inhibition at 3 µM in test [4] of 5%. Moreover, the inhibition in test [6] was 50%.
`CCCC1(CCc2ccccc2)CC(=O)C(C(c2cccc(NS(=O)(=O)c3cn(C)cn3)c2)C(C)(C)C)=C(O)O1` (stereo not given) had a concentration for an effect of 90% (IC90) in test [1] of 690 nM. In test [2], this molecule gave a Ki of 1.2 nM.
